The results in this text go back to US20060287347A1, “Methods for treating smooth muscle disorders using trospium” (priority 2005, published 2006).

Where two headings read alike, the source gives them in different places.

For data set [1], the target named is T1, human recombinant muscarinic receptor M-4 (Homo sapiens, UniProt P08173).
T1 sequence (P08173 1-479): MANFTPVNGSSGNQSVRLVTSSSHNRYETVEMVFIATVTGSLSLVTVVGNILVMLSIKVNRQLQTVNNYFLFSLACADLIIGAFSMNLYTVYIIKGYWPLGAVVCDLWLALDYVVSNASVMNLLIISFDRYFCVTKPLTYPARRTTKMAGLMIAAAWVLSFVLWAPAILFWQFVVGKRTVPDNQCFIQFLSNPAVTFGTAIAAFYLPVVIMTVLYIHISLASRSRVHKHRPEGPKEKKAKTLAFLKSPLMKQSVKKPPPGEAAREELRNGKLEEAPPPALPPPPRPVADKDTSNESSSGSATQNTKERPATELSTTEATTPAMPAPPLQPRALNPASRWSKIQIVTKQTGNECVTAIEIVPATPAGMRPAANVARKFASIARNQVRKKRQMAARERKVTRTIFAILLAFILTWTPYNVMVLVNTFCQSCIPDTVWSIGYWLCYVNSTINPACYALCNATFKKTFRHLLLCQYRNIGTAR
Briefly: Ligand binding, affinity for muscarinic receptors (M-4). The following applies: membranes from SF9 cells, radioligand 3H scopolamine methylchloride; read-out: Affinity (negative logarithm of the dissociation constant Ki), M-4 (converted).
Protocol: The experiments were carried out on membranes prepared from SF9 cells that expressed human recombinant muscarinic receptor subtypes. After incubation with the test article and the proper radioligand (^3H scopolamine methylchloride) and washing, bound radioactivity was determined with a liquid scintillation counter, using a commercial scintillation cocktail. The specific radioligand binding to a muscarinic receptor was defined as the difference between total binding and nonspecific binding determined in the presence of an excess of unlabelled atropine.

In another data set the test system is learning behavior. As to the kind of experiment: Cognitive side effects, Test Protocol 1: T-shaped maze learning. Type of data set: in vivo, rat. Particulars: for Effect on learning behavior (time to choose the correct arm of the T-maze): conscious rats, naive animals. The procedure:
Conscious rats are used. The animals are placed at the base of a T-shaped maze with a reward placed in one of the arms of the maze. The effect of the test article on learning is determined by investigating the time it takes in the maze before the rats choose the correct arm of the maze. Experiments were also performed in rats that had been pretreated with phenylephrine to increase the permeability of the blood-brain barrier. Control groups of animals were treated with placebo (vehicle only) or with oxybutynin.

The subject of data set [2] is carbachol-induced contractions of urinary bladder strips. As to the kind of experiment: Antimuscarinic activity on bladder smooth muscle strips (carbachol-induced contractions). Type of data set: cell-based, guinea pig. The following applies: Cavia porcellus, read-out: KB, inhibition of carbachol-induced contractions. How it is done: • Experiments have now been performed using methods described by Kachur et al, 1988, J Pharmacol Exp Ther 247: 867-872) and Noronha-Blob et al. J Pharmacol Exp Ther 256: 562-567). Strips of tissue (approximately 10 mm long and 1.5 mm wide) were removed from the urinary bladder of male guinea pigs. The tissues were suspended in an oxygenated buffer of the following composition, in mM: NaCl 133; KCl 4.7; CaCl2 2.5; MgSO4 0.6; […] The smooth muscle strips were maintained at or about 37.5° C. in tissue chambers and allowed to equilibrate with the bathing solution for one hour before proceeding with the experiment. […] R., Wright S. E., Aberg […]. 1998, 48: 1012-1018).

In data set [3] the test system is behavioral, neurological, autonomic and toxicity changes. As to the kind of experiment: Cognitive side effects, Test Protocol 2: modified Irwin test. Type of data set: in vivo, mouse. The following applies: oral dosing. The procedure:
Modified Irwin tests were performed. This is a routine neuro-pharmacological test method. Conscious mice were used. The procedure involved an initial phase of undisturbed observation and a later manipulative phase. An animal's assessment started by observing its undisturbed behavior in housing (body position, locomotor activity, etc.). Thereafter the animal was transferred by tail on the working table for the manipulative phase (spatial locomotion, gait, aggressiveness, etc.). The occurrence of any unexpected state was noted. The responses to test substances were assessed at 60 min, 120 min and 24 hrs after dosing. Animals were dose orally with trospium chloride, some groups of animals had been pretreated with phenylephrine to increase the permeability of the blood-brain barrier. Criteria included behavioral, neurological, autonomic and toxicity changes in comparison with vehicle-treated groups. The results were expressed for each group as the number of animals displaying behavioral changes versus the corresponding control group at each observation time. No statistical analysis was carried out since the lack of statistically significant differences were obvious to the investigator.

[4] abbreviates: male guinea pig urinary bladder strips.

As to `NC(=O)C(c1ccccc1)(c1ccccc1)[C@@H]1CCN(CCc2ccc3c(c2)CCO3)C1` [Darifenacin], the Ki in data set [1] was 39.8 nM.
Consider `CCN(CC)CC#CCOC(=O)C(O)(c1ccccc1)C1CCCCC1` (stereo not drawn) [Oxybutynin], for which, in the data set on learning behavior (ongoing studies), the “Effect on learning behavior (time to choose the correct arm of the T-maze)” value is given as “learning is delayed”. Further, the Kb in data set [2] (setting [4]) fell in the range of 1.5 to 5.5 nM.
`O=C(O[C@H]1C[C@H]2CC[C@@H](C1)[N+]21CCCC1)C(O)(c1ccccc1)c1ccccc1` [Trospium, endo-3-[(hydroxydiphenyl-acetyl)oxy]spiro[8-azoniabicyclo[3.2.1]octane-8,1′-pyrrolidinium]chloride]: the “Effect on learning behavior (time to choose the correct arm of the T-maze)” value with learning behavior (ongoing studies) is on record as “does not influence the learning behavior”. Further, the “Further impairment of learning behavior” value in the data set with learning behavior (rats in which a learning disorder has been induced with oxybutynin, ongoing studies) was “no further impairment of learning behavior”. The “Impairment of learning behavior after phenylephrine pretreatment” value in the data set on learning behavior (rats pretreated with phenylephrine to increase blood-brain barrier permeability) is given as “did not uncover any impairment of learning behavior”. The Kb in data set [2] is 1.5 to 5.5 nM. Besides, the “Behavioral changes in modified Irwin test versus control group” value in data set [3] (conscious mice, assessed at 60 min, 120 min and 24 hrs) was “did not influence the test results”. In addition, the “Behavioral changes in modified Irwin test after phenylephrine pretreatment” value in data set [3] (mice pretreated with phenylephrine to increase BBB permeation) is “no significant effects”.
`Cc1ccc(O)c([C@H](CCN(C(C)C)C(C)C)c2ccccc2)c1` [Tolterodine]: the Kb in data set [2] is 1.5 to 5.5 nM. In addition, the Ki in data set [1] was 12.6 nM.
Turning to `CC(CC(c1ccccc1)c1ccccc1)NC(C)(C)C` (stereo not drawn) [terodiline], the Kb in data set [2] (setting [4]) was 1.5 to 5.5 nM.
